Patent US11541065B2, “Compositions and methods for treating brain injury” (UNM RAINFOREST INNOVATIONS, priority 2018, dated 2023)

Assays:
Format in all cases: cell-based
[1] = system: COX2; assay: COX2 protein level in rat neuronal cultures (immunoblot); conditions: for effect on homocysteine-induced increase in COX2 protein level: rat neurons, L-homocysteine 50 μM four hours, with MK801 10 μM, NVP-AAM077 30 nM, Ro 25-6981 1 μM, PD98059 15 μM, SB203580 5 μM or Bengamide B 500 nM
Experimental: Equal protein from total cell lysates obtained from rat and mice neuronal cultures were resolved in 7.5% SDS-PAGE, and subjected to immunoblotting procedure as described earlier (Poddar and Paul, 2009, J Neurochem 110:1095-1106). Blots were analyzed with antibodies as described in each experiment. All primary antibodies (anti-COX2, anti-B-tubulin) and secondary-horse radish peroxidase conjugated antibody concentrations were used according to recommendations provided by the manufacturer. Signals from immune complexes in the blots were developed using West Pico supersignal chemiluminescence reagents and then captured on X-ray films. Densitometric analysis of the images was performed using the Image J software.
Rat and mice neuronal cultures were washed with PBS (pH 7.4), containing sodium pyrophosphate and sodium vanadate as phosphatase inhibitors, and harvested in SDS sample buffer (Laemmli, 1970, Nature 227:680-685). Equal protein from total cell lysates, estimated using BCA kit, was resolved by SDS-PAGE (7.5%) followed by western blotting on PVDF membranes. Immunoblot analysis was performed by first blocking with 5% non-fat dry milk for 1 h at room temperature followed by incubation with either COX2 immunoblot analysis (Poddar and Paul, 2009, J Neurochem 110:1095-1106) as described in each experiment. All primary antibodies and horseradish peroxidase conjugated secondary antibodies were used according to manufacturer's recommendations. Signals from immune complexes in the blots were developed using West Pico supersignal chemiluminescence reagents and then captured on X-ray films. Densitometric analysis of the images was performed using the NIH Image J software.

[2] = system: rat cortical neuronal cultures; assay: Neuronal cell death by Hoechst DNA staining, rat cortical neuron cultures
Experimental: Neurons were subjected to staining with Hoechst 33342 dye for 15 minutes, washed extensively with PBS, and analyzed using fluorescent microscopy to assess nuclear damage. Imaging was performed with a Zeiss Axiovert 200M fluorescence microscope with attached AxioCam CCD camera using 20× objective lens (Carl Zeiss, Thomwood, N.Y.). To quantitatively assess the percentage of pyknotic nuclei a total of 1000 cells were counted for each set of experiments. Mean±SEM (n=3) were used for statistical comparison using ANOVA (Bonferroni's multiple comparison test). Differences were considered significant when p<0.05.
[…] Glutamate treated cells were then maintained in their original medium for another 17 hours. For some experiments, neurons were treated with L-homocysteine or glutamate in the presence of NVP-AAM077 or PD98059. The neurons were then fixed and stained with Hoechst 33342 dye as previously described (Poddar and Paul, 2009, J Neurochem 110:1095-1106). Percentage of pyknotic nuclei was quantitatively assessed by fluorescent microscopy to determine the extent of neuronal death.

[3] = system: [Ca^2+]i; assay: Intracellular Ca^2+ by Fura2 imaging, rat neuronal cultures; conditions: for effect on homocysteine-induced increase in Fura2 fluorescence ratio and [Ca^2+]i: rat neurons, somata and processes, L-homocysteine 50 μM 60 minutes, with EGTA 2 mM, DL-AP5 200 μM, NVP-AAM077 30 nM or Ro 25-6981 1 μM
Experimental: Embryos obtained from pregnant Sprague Dawley rats (16-17-day gestation) or wild type (WT) and GluN2A KO mice (15-16-day gestation) were used to establish primary cortical neuronal cultures as previously described (Poddar and Paul, 2009, J Neurochem 110:1095-1106; Poddar and Paul, 2013, J Neurochem 124:558-570; Poddar et al., 2017, J Neurochem 142:560-573). Neurons were grown on either (a) 35-mm culture dishes (MatTek Corp., Ashland, Mass.) coated overnight with poly-D-lysine (50 μg/ml) and laminin (10 μg/ml) for Ca^2+ imaging studies, (b) poly-D-lysine-coated 60 mm dishes (Corning BIOCOAT, Corning Inc., Corning, N.Y.) for biochemical studies, or (c) poly-D-lysine-coated 4-well culture slides (Corning BIOCOAT, Corning Inc., Corning, N.Y.) for cell death assay. Neurons were maintained in culture for 12-13 days before experiment. The cells were treated with freshly prepared L-homocysteine (50 μM) in Hank's balanced salt solution containing 50 μM of glycine (Lipton et al., 1997, Proceedings of the National Academy of Sciences of the United States of America 94:5923-5928; Poddar and Paul, 2009, J Neurochem 110:1095-1106; Poddar and Paul, 2013, J Neurochem 124:558-570; Poddar et al., 2017, J Neurochem 142:560-573) for the specified time periods. In a parallel series of experiments, cells were treated with glutamate (50 μM) for the specified time periods. Cells were then processed for live cell imaging, immunoblotting or cell death assay. In some experiments EGTA, DL-AP5, NVP-AAM077, Ro 25-6981 or PD98059 was added 15 minutes prior to L-homocysteine or glutamate treatment.
[Ca^2+]i in neurons was determined using the fluorescent indicator, Fura2-AM. Briefly, neurons were loaded with Fura2 (10 μM) in phenol red free Hank's balanced salt solution for 30 minutes at 37° C. followed by post-incubation for 20 minutes (Paul, S. and Connor, J. A., 2010, J Neurochem 114:1107-1118). Time lapse live cell imaging was performed following stimulation using a Nikon Ti Eclipse inverted microscope equipped with Tokai Hit stage top incubator maintained at 37° C. and infused with 95:5% air:CO2 mixture. Fields of 5-8 cells were imaged using a 40× oil immersion objective (Nikon). Fluorescence excitations (340 and 380 nm) were provided with Sutter LB-LS/30 Lambda xenon arc lamp and fluorescence emissions (510 nm) were captured using a CCD camera (Teledyne Photometries, Tucson, Ariz.). NIS Elements AR software was used for data acquisition and analysis. Ratiometric data (340/380 nm) from regions of interest were corrected for background and converted into estimates of [Ca^2+]i. as described previously (Paul, S. and Connor, J. A., 2010, J Neurochem 114:1107-1118) using the equation developed earlier (Grynkiewicz et al., 1985, J Biol Chem 260:3440-3450). Maximum and minimum fluorescence ratios were determined from Fura2 loaded cells treated with ionomycin (5 μM) in calcium containing medium (2 mM) or in calcium free media with EGTA (0.5 mM).

SMILES | COX2 protein levels ([1]; cortical neurons, L-homocysteine 50 μM, time course, alone) | number of apoptotic cells (pyknotic nuclei) ([2]; rat cortical neurons, L-homocysteine 50 μM, 24 hours, alone vs untreated controls) | cell death (pyknotic nuclei) ([2]; rat neurons, L-homocysteine 50 μM, 18 h, alone) | maximum increase in [Ca^2+]i vs control cells ([3]; rat neurons (soma), L-homocysteine 50 μM, by 60 minutes) | effect on homocysteine-induced increase in COX2 protein level [1] | effect on homocysteine-induced apoptotic cells ([2]; rat cortical neurons, L-homocysteine 50 μM 24 hours, NVP-AAM077 30 nM) | effect on homocysteine-induced neuronal death ([2]; rat neurons, L-homocysteine 50 μM 18 hours, with NVP-AAM077 30 nM or PD98059 15 μM) | effect on homocysteine-induced increase in Fura2 fluorescence ratio and [Ca^2+]i [3]
N[C@@H](CCS)C(=O)O [L-homocysteine] | progressive increase in COX2 protein levels | significant increase in the number of apoptotic cells | significant increase in cell death | approximately 7.2 folds | – | – | – | –
C[C@H](NC(c1cccc2[nH]c(=O)c(=O)[nH]c12)P(=O)(O)O)c1ccc(Br)cc1 (stereo partly drawn) [NVP-AAM077, ({[(1S)-1-(4-bromophenyl)ethyl]amino}-(2,3-dioxo-1,4-dihydroquinoxalin-5-yl)methyl)phosphonic acid] | – | – | – | – | blocks homocysteine-induced increase in COX2 protein expression | significantly reduced the number of apoptotic cells | Significantly Reduces Homocysteine-Induced Neuronal Death | attenuates homocysteine-induced increase in Fura2 fluorescence ratio and [Ca^2+]i
C[C@@H](CN1CCC(Cc2ccccc2)CC1)[C@@H](O)c1ccc(O)cc1 [Ro 25-6981] | – | – | – | – | fails to ameliorate homocysteine-induced increase in COX2 protein level | – | – | fails to attenuate homocysteine-induced [Ca^2+]i increase
